Measurements as given in patent publication US20070060551A1, “Methods of using isothiazole derivatives to treat cancer or inflammation” (QLT, Inc., priority 2002, published 2007).

Assays:
various cell lines = assay: Cytotoxicity assay (calcein AM cell viability); assay type: cell-based; conditions: approximately 24 hours incubation
Description: This procedure is used to assess the effects compounds have on various cell lines with respect to cell viability. Cell viability is quantified using calcein AM and measuring its conversion to a fluorescent product (calcein) with a fluorimeter.
The principle of this assay is based on the presence of ubiquitous intracellular esterase activity found in live cells. By enzymatic reaction of esterase, non-fluorescent cell-permeant calcein AM is converted to the intensely fluorescent calcein. The polyanionic dye calcein is retained within live cells, producing a green fluorescence in live cells. […]
Cells were collected from tissue culture flasks and trypsinized, centrifuged, resuspended and counted. […]
The calcein AM solution is prepared by added 50 μg of calcein AM crystal (m.w. =994.87 g/mol, Molecular Probes, Eugene, Oreg.) and Anhydrous DMSO (Sigma Aldrich) to make 1 mM stock and diluting stock to 2× the final desired concentration in 1× DPBS just before the assay. […] Fluorescence data was read and recorded (Fluoroskan Ascent® FL fluorimeter (excitation˜485nm, emission˜527nm)).
The values for replicates (usually six) are averaged and % inhibition is calculated as follows: % inhibition=100−[(AVG treatment−AVG positive control)/(AVG negative control−AVG positive control)*100]

caspase-3 = target: T1, caspase-3 (Homo sapiens, UniProt P42574); assay: Caspase-3 selectivity assay (Calbiochem kit, colorimetric); assay type: biochemical
T1 construct: purchased Calbiochem
T1 sequence (P42574 29-175 limits assumed): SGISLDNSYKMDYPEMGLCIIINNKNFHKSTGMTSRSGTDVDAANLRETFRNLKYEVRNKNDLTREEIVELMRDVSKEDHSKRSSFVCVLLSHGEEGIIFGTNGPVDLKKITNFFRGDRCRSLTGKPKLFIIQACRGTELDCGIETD
T1 sequence (P42574 176-277 limits assumed): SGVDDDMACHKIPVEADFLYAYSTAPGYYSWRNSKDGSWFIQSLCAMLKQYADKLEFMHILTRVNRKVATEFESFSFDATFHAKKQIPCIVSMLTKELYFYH
Description: This is a selectivity assay, which provides information about the specificity of the compounds. A cysteine residue located within the active pocket of the catalytic domain that is conserved between the […] like caspase-3 and the protein tyrosine phosphatases like PTPN12 has a thiol group within this cysteine amino acid that may interact with specific R-groups with inhibiting compounds with in vitro enzyme inhibiting activity. Also, caspase inhibition can prevent apoptosis from occurring in some cases via the caspase cascade. As the potential for cross-inhibitory activity and nonselectivity exists, the caspase-3 assay is performed on PTN12 inhibitors.
The Calbiochem caspase-3 assay kit was utilized according to package insert instructions. The assay is useful for screening for caspase-3 inhibitors measuring the protease activity of caspase-3 and other caspase-3-like activities. Cleavage is monitored calorimetrically by measuring the increase in absorbance at 405 nm. Assays were performed in a 96-well microtiter plate format.

PTPN12 = target: T2, PTPN12 (Homo sapiens, UniProt Q05209); assay: PTPN12 in vitro phosphatase assay (malachite green phosphate release); assay type: biochemical; conditions: for % Inhibition of PTPN12: at 20 μm concentration
T2 construct: Expression of human truncated PTPN12 (PTP-PEST-N) as a fusion protein; made in house; host or cells: E. coli strain ER2566 (IMPACT vector pTWIN-II)
T2 sequence (Q05209 28-293 limits assumed): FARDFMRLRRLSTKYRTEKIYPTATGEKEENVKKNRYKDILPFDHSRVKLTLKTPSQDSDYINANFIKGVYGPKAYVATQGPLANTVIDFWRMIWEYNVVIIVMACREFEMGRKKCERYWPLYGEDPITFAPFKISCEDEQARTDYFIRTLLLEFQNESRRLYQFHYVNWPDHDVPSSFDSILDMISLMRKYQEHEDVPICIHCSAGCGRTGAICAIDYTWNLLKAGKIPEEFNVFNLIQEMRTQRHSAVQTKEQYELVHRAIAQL
Procedure: Expression of human truncated PTPN12 (PTP-PEST-N) as a fusion protein required that the cDNA be ligated into the polyclonal site situated in frame and upstream of the intein gene of the IMPACT™ expression vector pTWIN-II. The truncated version was used as it was far easier to handle and gave parallel results to the full length protein in comparison testing. For the purpose of simplicity, PTP-PEST-N will be used interchangeably with PTPN12 in these Examples.
Biochemical analysis is performed on recombinant human PTPN12 fusion protein. […] This activity is considered to be in the high range as compared to other recombinant protein tyrosine phosphatases. PTPN12 preparations were subsequently used extensively in in vitro assays for the initial discovery of compounds having the ability to inhibit PTPN12 activity.
Compounds were tested in the following assay for their ability to inhibit the activity of the desired phosphatase.
The enzyme (phosphatase) activity was determined in a reaction that measured phosphate relase from tyrosine phospho-specific peptides using a method first described by Harder et al., Biochem. J. (1994), Vol. 298, pp. 395-401. This is a non-radioactive method for measuring free phosphate by the malachite green method first described by Van Veldhoven and Mannaerts, Anal Biochem. (1987), Vol.161, pp. 45-48. 10× assay buffer (250 mM Tris:100 mM, β-Mercaptoethanol, 50 mM EDTA; pH 7.2) was diluted to 5× concentration with distilled H2O (dH2O). Then 71.4 μM of substrate working stock solution was prepared in dH2O.
In a Falcon 96 well plate the sample compound was diluted in 1% DMSO (One mL DMSO (Sigma, Cat. # D-8779) dissolved in 99 mL dH2O and stored at room temperature) such that the concentration of the sample compound working stock solution is ten times the final desired concentration of the compound in the assay.
The negative control consisted of 5 μl 1% DMSO and 35 μL substrate working stock solution and 10 μL diluted enzyme, per well), and was placed in the first column of wells on the plate. The last column of wells on the plate was reserved for an enzyme blank, which consisted of 5 μL 1% DMSO, 35 μL substrate working stock solution, and 10 μL 5× assay buffer, per well. Test samples were placed in columns 2-11 and consisted of 5 μL sample in 1% DMSO, 35 μL substrate working stock solution, and 10 μL of diluted enzyme, per well, at the desired concentration. Using the repeater function of a Biohit™ multichannel pipettor, 5 μL of 100 μM sample from the Falcon plate columns was added to corresponding Costar™ assay plate columns.
Using a multichannel pipettor, 35 μL of 71.4 μM ppC-SRC 60 substrate was added to all assay wells, then 10 μL of appropriately diluted enzyme was added to the wells on a column by column basis, pausing 5 seconds between columns. Timing started at the first addition.
The assay plate was incubated at room temperature (21° C.) for 15 minutes. The reaction was “stopped” by adding 100 μL colour reagent on a column by column basis, pausing 5 seconds between columns. Colour was allowed to develop for at least 15 minutes, but no longer than two hours, at room temperature. The plate was “read” on Bio-tek Instruments EL312e™ microplate Bio-Kinetics™ reader at 590 nm and the data collected as per instrument manual.
The blank and negative controls were read, and blanks were subtracted from the average of negative control values and sample values, and the % inhibition was expressed by the following formula: % Inhibition=100−[corrected sample reading/corrected Negative Control reading*100].

CSc1nsc(SCc2ccccc2)c1C(N)=O [5-Benzylsulfanyl-3-methylsulfanyl-isothiazole-4-carboxylic acid amide]
cytotoxicity (cell viability, calcein AM) (various cell lines): no cytotoxicity | % Inhibition of Caspase 3 (caspase-3; at 10 μm): 4 at 10 μm % | % Inhibition of Caspase 3 (caspase-3; at 100 μm): 14 at 100 μm % | IC50 (PTPN12; PTPN12, unit inferred): 1500 nM | inhibition at 20 µM (PTPN12; at 20 μM (Table 2)): 94%

CS(=O)(=O)c1nsc(S(C)(=O)=O)c1C(=O)NC(=O)Nc1ccccc1Cl [1-(3,5-Bis-methanesulfonyl-isothiazole-4-carbonyl)-3-(2-chloro-phenyl)-urea]
% Inhibition of PTPN12 (PTPN12): 63%

CCS(=O)(=O)CCSc1nsc(SCCS(=O)(=O)CC)c1C#N [3,5-Bis-(2-ethanesulfonyl-ethylsulfanyl)-isothiazole-4-carbonitrile]
% Inhibition of PTPN12 (PTPN12): 60%

CSc1nsc(SC)c1C(=O)N1CCCCC1 [(3,5-Bis-methylsulfanyl-isothiazol-4-yl)-piperidin-1-yl-methanone]
% Inhibition of PTPN12 (PTPN12): 51%

N#Cc1c(SCC(=O)Nc2ccc(S(N)(=O)=O)cc2)nsc1SCC(=O)Nc1ccc(S(N)(=O)=O)cc1 [2-{4-Cyano-3-[(4-sulfamoyl-phenylcarbamoyl)-methylsulfanyl]-isothiazol-5-ylsulfanyl}-N-(4-sulfamoyl-phenyl)-acetamide]
% Inhibition of PTPN12 (PTPN12): 73%
